# According to ChEMBL document CHEMBL6074671, “Discovery of Pyridine-2-Carboxamides Derivatives as Potent and Selective HPK1 Inhibitors for the Treatment of Cancer” (J Med Chem, 2024):
# Legend:
# [1] = biological target: Serine/threonine-protein kinase TAO2 (Homo sapiens, UniProt Q9UL54); experiment: Inhibition of TAOK2 (unknown origin)
# in vivo [2] = conditions: Sprague-Dawley, rat, plasma, iv, 1 mg/kg
# Description: Clearance in Sprague-Dawley rat plasma at 1 mg/kg, iv
# [3] = biological target: Voltage-gated inwardly rectifying potassium channel KCNH2 (Homo sapiens, UniProt Q12809); experiment: Inhibition of human ERG expressed in CHO cells; assay type: toxicity, cell-based
# Sequence of Voltage-gated inwardly rectifying potassium channel KCNH2 (Q12809 whole entry): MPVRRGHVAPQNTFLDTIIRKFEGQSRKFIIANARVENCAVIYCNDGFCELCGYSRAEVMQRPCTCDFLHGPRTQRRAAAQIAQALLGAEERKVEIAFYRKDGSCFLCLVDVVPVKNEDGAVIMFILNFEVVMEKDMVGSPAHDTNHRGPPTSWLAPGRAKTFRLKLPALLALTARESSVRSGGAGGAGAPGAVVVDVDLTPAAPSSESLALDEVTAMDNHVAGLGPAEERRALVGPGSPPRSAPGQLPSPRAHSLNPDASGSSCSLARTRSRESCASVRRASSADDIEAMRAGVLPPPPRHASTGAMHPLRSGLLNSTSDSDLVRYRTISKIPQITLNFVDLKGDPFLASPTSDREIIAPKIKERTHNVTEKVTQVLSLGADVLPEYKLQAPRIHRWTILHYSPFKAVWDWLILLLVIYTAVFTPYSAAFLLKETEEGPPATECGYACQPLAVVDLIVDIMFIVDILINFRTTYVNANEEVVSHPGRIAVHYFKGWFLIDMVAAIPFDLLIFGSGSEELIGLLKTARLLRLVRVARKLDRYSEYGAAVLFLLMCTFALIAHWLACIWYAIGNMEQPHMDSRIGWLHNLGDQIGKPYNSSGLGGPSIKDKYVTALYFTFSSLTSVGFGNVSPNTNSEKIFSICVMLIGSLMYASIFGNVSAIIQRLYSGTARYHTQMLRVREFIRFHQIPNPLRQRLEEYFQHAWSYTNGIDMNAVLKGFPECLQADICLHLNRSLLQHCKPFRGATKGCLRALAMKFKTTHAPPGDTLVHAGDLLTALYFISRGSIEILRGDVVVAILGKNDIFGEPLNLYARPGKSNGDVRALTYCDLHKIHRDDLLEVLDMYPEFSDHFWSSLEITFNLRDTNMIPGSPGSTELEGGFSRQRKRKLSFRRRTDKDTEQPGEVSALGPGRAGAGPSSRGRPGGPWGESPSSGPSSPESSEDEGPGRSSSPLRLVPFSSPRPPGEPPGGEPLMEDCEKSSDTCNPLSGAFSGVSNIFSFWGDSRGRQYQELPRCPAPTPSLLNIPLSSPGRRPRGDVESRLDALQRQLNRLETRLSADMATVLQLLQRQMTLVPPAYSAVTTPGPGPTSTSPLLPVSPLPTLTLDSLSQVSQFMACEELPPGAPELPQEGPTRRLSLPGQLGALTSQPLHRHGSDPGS
# [4] = Toxicity in C57BL/6 mouse implanted with mouse MC38 cells assessed as effect on body weight loss at low dose, po BID measured after 12 days in presence of anti-PD-1; assay type: organism-based; conditions: in vivo, 288 h, time 12 day
# [5] = Solubility in compound in FassIF at pH 6.5 incubated for 24 hrs by HPLC-UV analysis; assay type: physicochemical
# [6] = biological target: Serine/threonine-protein kinase PLK4 (Homo sapiens, UniProt O00444); experiment: Inhibition of PLK4 (unknown origin)
# [7] = biological target: Tyrosine-protein kinase JAK2 (Homo sapiens, UniProt O60674); experiment: Inhibition of JAK2 (unknown origin)
# Sequence of Tyrosine-protein kinase JAK2 (O60674 whole entry): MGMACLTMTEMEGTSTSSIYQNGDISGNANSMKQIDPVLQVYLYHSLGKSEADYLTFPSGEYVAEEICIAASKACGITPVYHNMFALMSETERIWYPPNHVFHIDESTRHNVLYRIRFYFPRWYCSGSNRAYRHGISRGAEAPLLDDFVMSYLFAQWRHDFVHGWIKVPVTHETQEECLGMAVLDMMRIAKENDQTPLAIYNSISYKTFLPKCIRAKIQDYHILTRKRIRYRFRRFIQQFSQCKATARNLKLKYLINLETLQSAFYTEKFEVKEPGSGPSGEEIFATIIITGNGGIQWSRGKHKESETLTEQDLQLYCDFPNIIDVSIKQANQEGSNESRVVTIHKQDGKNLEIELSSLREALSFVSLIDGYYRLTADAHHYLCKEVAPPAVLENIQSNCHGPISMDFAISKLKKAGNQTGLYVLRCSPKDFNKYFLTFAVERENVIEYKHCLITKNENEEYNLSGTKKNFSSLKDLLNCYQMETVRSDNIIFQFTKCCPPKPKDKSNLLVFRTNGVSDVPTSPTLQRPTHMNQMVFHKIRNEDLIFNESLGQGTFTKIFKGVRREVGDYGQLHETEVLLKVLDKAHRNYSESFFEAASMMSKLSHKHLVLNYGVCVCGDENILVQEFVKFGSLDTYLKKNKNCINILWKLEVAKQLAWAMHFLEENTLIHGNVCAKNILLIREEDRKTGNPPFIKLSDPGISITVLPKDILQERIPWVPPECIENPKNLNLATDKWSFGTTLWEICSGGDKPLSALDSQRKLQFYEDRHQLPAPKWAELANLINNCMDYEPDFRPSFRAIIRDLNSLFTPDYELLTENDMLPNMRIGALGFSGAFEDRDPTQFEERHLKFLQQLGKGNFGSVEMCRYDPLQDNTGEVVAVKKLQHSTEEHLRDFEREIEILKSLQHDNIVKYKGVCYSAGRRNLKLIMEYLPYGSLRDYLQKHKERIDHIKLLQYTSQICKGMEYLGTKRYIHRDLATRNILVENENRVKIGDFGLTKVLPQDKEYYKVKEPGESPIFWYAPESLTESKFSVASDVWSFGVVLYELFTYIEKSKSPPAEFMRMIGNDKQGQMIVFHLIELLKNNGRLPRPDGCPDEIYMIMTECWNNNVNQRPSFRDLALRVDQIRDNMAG
# [8] = dog, in vivo, po, 2 mg/kg
# [9] = biological target: Mitogen-activated protein kinase kinase kinase kinase 5 (Homo sapiens, UniProt Q9Y4K4); experiment: Inhibition of human GST-tagged full length recombinant MAP4K5 expressed in insect cells; set-up: species or system Insect cell
# [10] = biological target: Interleukin-1 receptor-associated kinase 4 (Homo sapiens, UniProt Q9NWZ3); experiment: Inhibition of IRAK4 (unknown origin)
# Sequence of Interleukin-1 receptor-associated kinase 4 (Q9NWZ3 whole entry): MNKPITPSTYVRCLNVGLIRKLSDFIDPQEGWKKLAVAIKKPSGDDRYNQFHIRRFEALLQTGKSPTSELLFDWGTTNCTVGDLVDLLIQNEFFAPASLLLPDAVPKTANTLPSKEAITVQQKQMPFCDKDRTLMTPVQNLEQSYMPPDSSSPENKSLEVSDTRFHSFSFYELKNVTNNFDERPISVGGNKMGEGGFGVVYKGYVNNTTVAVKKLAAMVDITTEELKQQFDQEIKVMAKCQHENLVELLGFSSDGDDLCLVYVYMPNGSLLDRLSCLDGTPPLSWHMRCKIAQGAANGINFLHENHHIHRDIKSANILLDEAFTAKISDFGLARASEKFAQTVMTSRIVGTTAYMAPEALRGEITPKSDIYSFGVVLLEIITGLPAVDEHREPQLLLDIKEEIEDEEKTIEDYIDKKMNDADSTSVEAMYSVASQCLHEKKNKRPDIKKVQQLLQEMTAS
# [11] = biological target: Mitogen-activated protein kinase kinase kinase kinase 1 (Homo sapiens, UniProt Q92918); experiment: Inhibition of HPK1 in human PBMC cells assessed as IL-2 level pretreated for 4 hrs followed by anti-CD3/CD28 stimulation for 20 mins by HTRF method; assay type: cell-based
# [12] = Toxicity in Balb/c mouse assessed as effect on body weight loss at 1.5 to 12 mg/kg, po BID measured after 15 days; assay type: organism-based; conditions: in vivo, 360 h, dose 1.5-12 mg/kg, time 15 day
# [13] = Genotoxicity in […] WP2 uvrA incubated for 48 to 72 hrs in presence of S9 fraction by AMES test; assay type: toxicity, subcellular; conditions: time 48-72 hrs
# [14] = biological target: Mitogen-activated protein kinase kinase kinase kinase 4 (Homo sapiens, UniProt O95819); experiment: Inhibition of catalytic domain N-terminal GST tagged human MAP4K4 (1 to 328 residues) expressed in insect Sf21 cells
# Sequence of Mitogen-activated protein kinase kinase kinase kinase 4 (O95819 whole entry, the tested form may be a part): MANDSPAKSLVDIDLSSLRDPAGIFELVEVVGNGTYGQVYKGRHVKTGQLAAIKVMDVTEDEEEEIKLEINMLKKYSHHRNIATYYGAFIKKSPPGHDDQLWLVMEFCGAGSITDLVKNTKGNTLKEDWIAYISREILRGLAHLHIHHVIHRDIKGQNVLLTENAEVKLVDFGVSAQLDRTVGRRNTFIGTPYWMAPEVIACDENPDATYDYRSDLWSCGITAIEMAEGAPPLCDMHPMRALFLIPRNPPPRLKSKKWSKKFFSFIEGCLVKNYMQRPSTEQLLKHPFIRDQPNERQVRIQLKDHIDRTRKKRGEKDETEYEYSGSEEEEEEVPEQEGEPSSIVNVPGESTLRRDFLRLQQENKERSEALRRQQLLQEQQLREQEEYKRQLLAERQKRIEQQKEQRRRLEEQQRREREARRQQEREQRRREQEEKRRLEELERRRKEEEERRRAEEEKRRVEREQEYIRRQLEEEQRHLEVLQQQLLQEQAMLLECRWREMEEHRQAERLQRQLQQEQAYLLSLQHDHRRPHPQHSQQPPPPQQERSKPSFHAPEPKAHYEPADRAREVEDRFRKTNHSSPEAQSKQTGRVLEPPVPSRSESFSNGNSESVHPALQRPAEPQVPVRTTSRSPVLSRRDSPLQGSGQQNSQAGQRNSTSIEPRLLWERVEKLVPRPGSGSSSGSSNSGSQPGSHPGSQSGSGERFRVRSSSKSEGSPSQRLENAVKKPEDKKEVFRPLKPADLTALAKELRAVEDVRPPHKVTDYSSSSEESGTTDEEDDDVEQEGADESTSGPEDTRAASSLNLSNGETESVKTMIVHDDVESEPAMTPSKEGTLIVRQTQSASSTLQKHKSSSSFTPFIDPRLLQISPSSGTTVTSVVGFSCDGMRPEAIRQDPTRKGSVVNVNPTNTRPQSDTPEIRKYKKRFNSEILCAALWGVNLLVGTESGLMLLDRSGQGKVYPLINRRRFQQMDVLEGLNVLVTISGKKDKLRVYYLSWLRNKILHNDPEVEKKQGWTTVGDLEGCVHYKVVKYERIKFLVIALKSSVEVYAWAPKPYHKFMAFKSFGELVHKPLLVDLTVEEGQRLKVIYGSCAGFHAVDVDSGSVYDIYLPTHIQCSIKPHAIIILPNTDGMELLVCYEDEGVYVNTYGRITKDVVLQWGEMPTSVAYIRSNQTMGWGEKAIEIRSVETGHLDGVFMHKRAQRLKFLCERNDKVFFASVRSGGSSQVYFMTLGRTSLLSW
# [15] = biological target: T1, Mitogen-activated protein kinase kinase kinase kinase 3 (Homo sapiens, UniProt Q8IVH8); experiment: Inhibition of GLK (unknown origin)
# T1 sequence (Q8IVH8 whole entry): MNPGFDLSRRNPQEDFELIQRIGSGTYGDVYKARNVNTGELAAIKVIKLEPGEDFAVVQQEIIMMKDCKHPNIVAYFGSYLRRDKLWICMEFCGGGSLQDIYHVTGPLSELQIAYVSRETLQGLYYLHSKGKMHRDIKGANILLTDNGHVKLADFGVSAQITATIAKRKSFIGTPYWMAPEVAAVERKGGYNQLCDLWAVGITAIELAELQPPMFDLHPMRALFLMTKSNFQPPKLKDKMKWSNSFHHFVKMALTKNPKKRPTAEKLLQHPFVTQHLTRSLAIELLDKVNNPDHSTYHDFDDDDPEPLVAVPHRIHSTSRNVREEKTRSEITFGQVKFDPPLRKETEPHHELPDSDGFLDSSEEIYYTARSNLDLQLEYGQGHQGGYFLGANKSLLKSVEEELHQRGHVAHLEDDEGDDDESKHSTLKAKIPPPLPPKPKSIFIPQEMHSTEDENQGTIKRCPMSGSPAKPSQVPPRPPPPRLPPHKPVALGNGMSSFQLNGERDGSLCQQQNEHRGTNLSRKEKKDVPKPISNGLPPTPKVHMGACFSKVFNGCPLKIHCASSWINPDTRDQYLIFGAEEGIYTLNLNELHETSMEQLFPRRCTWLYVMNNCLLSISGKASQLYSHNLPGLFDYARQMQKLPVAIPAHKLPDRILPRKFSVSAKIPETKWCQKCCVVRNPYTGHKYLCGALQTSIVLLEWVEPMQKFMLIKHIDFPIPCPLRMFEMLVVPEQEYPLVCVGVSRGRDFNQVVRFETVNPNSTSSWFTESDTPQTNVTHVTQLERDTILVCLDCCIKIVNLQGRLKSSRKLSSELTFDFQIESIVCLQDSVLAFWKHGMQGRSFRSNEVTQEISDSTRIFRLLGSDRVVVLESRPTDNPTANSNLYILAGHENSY
# [16] = Toxicity in C57BL/6 mouse implanted with mouse MC38 cells assessed as increase in survival at high dose, po BID measured after 12 days in presence of anti-PD-1; assay type: organism-based; conditions: in vivo, 288 h, time 12 day
# [17] = biological target: Tyrosine-protein kinase SYK (Homo sapiens, UniProt P43405); experiment: Inhibition of SYK (unknown origin)
# [18] = Half life in Sprague-Dawley rat at 10 mg/kg, po; assay type: ADME, organism-based; conditions: in vivo
# [19] = biological target: Tyrosine-protein kinase ITK/TSK (Homo sapiens, UniProt Q08881); experiment: Inhibition of ITK (unknown origin)
# Sequence of Tyrosine-protein kinase ITK/TSK (Q08881 whole entry): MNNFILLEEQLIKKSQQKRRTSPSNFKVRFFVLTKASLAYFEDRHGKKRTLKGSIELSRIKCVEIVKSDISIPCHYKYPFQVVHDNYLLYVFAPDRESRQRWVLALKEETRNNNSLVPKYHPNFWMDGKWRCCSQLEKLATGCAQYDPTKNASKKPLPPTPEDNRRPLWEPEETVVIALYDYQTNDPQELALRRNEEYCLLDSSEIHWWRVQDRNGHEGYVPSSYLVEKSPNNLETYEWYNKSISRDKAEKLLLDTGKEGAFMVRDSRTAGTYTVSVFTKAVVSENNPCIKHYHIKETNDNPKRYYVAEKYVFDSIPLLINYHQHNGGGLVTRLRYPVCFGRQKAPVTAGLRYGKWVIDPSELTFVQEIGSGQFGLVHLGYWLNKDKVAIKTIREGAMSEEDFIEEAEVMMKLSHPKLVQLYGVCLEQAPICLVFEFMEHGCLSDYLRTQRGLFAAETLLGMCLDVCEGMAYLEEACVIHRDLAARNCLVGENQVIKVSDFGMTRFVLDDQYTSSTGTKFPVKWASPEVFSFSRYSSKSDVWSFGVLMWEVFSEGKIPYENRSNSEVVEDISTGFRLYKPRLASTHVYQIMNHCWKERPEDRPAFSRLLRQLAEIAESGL
# [20] = Plasma protein binding in cynomolgous monkey assessed as unbound fraction at 2 uM incubated for 4 hrs by LC-MS/MS analysis; assay type: ADME, cell-free, Macaca fascicularis; conditions: cynomolgus monkey
# Misshapen-like kinase 1 = Misshapen-like kinase 1 (Homo sapiens, UniProt Q8N4C8); experiment: Inhibition of catalytic domain human GST-tagged N-terminal MAP4K6 (1 to 314 residues) expressed in insect Sf21 cells
# [21] = Plasma protein binding in mouse assessed as unbound fraction at 2 uM incubated for 4 hrs by LC-MS/MS analysis; assay type: ADME, cell-free
# [22] = Efflux ratio in human Caco-2 cells; assay type: ADME, cell-based
# in vivo [23] = conditions: Balb/c, mouse, iv, 1 mg/kg
# Description: Volume of distribution in Balb/c mouse at 1 mg/kg, iv
# MC-38 = experiment: Antitumor activity against mouse MC38 cells implanted in C57BL/6 mouse model assessed as tumor growth inhibition at 3 mg/kg, po BID measured after 12 days relative to control; assay type: functional; conditions: MC-38, 288 h, time 12 day, read-out: TGI
# [24] = biological target: Tyrosine-protein kinase JAK3 (Homo sapiens, UniProt P52333); experiment: Inhibition of JAK3 (unknown origin)
smiles,measurement,setting,value
COc1cc(Nc2ccc3c(n2)CN(C)C32CCN(C3COC3)CC2)c(C(N)=O)nc1-c1cccc2c1ncn2C,IC50,[1],> 10000 nM
same,clearance,in vivo [2],9.67 mL/min/kg
same,IC50,[3],> 10000 nM
same,Activity,[4],Non-toxic
same,solubility at 24 h,[5],18.9 µM
same,IC50,[6],> 10000 nM
same,IC50,[7],> 10000 nM
same,AUC/dose,[8],563 ng·h/mL
same,IC50,[9],185 nM
same,IC50,[10],3500 nM
same,EC50,[11],43.3 nM
same,Activity,[12],Non-toxic
same,Activity,[13],Non-toxic
same,IC50,[14],377 nM
same,IC50,[15],325 nM
same,Activity,[16],Non-toxic
same,IC50,[17],> 10000 nM
same,half-life,[18],3.42 h
same,IC50,[19],> 10000 nM
same,"fraction unbound at 4 h, 2 µM",[20],0.153
same,IC50,Misshapen-like kinase 1,116 nM
same,"fraction unbound at 4 h, 2 µM",[21],0.079
same,efflux ratio,[22],8.4
same,Vd,in vivo [23],2.13 L/kg
same,inhibition in vivo at 3 mg/kg,MC-38,34.9%
same,IC50,[24],> 10000 nM
